Test results as given in EP0791056B1, “LIPID-CLEAVAGE ENZYME COMPLEX” (priority 1994, dated 1996).

Tested on: Phosphodiesterase aus Schlangengift
Test: Enzymatic cleavage of AZT-DMDOPE, detection of cleavage products by thin-layer chromatography
Type: biochemical
Conditions: 10 mg AZT-DMDOPE in 0,1 M Tris, 0,5 mg enzyme, 15 h + 6 h at 37 °C

## CCCCCCCCCCCCSCC(COP(=O)(O)OC[C@H]1O[C@@H](n2cc(C)c(=O)[nH]c2=O)C[C@@H]1N=[N+]=[N-])OCCCCCCCCCC (stereo partly shown) [AZT-DMDOPE, (3'-Desoxy-3'-azidothymidin)-5'-phosphorsäure-(3-dodecyl-mercapto-2-decyloxy)-propylester]
  Fluoreszenzauslöschung DC: negativ
